PubChem BioAssay AID330 (DTP/NCI, 2004)
Several values for one entry are separate records, joined by “and”; a condition that tells them apart may be missing. Equal entries are not always repeated. Toxic doses and inconclusive results are not listed. Rule for the calls: active = survival T/C of 150% or more; inactive = T/C below 125% in these data.

Test system: P388 leukemia ip, CD2F1 mice, survival T/C
Assay: NCI In Vivo Anticancer Drug Screen. Data for tumor model P388 Leukemia (intraperitoneal) in CD2F1 (CDF1) mice
Settings: endpoint: median survival time, higher = longer survival
In short: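 Mice carrying the transplanted tumor received test compound or vehicle. Survival was recorded in each group, and the value is the treated-group measurement divided by that of the vehicle-treated control group.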

[1] = dose: 60.0 mg/kg/injection, schedule: Q01DX005 (ip), vehicle: Klucel (hydroxypropylcellulose) (HPC)
[2] = dose: 120.0 mg/kg/injection, schedule: Q01DX005 (ip), vehicle: Klucel (hydroxypropylcellulose) (HPC)
[3] = dose: 240.0 mg/kg/injection, schedule: Q01DX005 (ip), vehicle: Klucel (hydroxypropylcellulose) (HPC)
[4] = dose: 60.0 mg/kg/injection, schedule: Q01DX005 (ip), vehicle: saline with Tween-80
[5] = dose: 120.0 mg/kg/injection, schedule: Q01DX005 (ip), vehicle: saline with Tween-80
[6] = dose: 50.0 mg/kg/injection, schedule: Q01DX009 (ip), vehicle: Klucel (hydroxypropylcellulose) (HPC)
[7] = dose: 100.0 mg/kg/injection, schedule: Q01DX009 (ip), vehicle: Klucel (hydroxypropylcellulose) (HPC)
[8] = dose: 50.0 mg/kg/injection, schedule: Q01DX005 (ip), vehicle: Klucel (hydroxypropylcellulose) (HPC)
[9] = dose: 100.0 mg/kg/injection, schedule: Q01DX005 (ip), vehicle: Klucel (hydroxypropylcellulose) (HPC)
[10] = dose: 200.0 mg/kg/injection, schedule: Q01DX005 (ip), vehicle: Klucel (hydroxypropylcellulose) (HPC)
[11] = dose: 12.5 mg/kg/injection, schedule: Q01DX009 (ip), vehicle: Klucel (hydroxypropylcellulose) (HPC)
[12] = dose: 25.0 mg/kg/injection, schedule: Q01DX009 (ip), vehicle: Klucel (hydroxypropylcellulose) (HPC)
[13] = dose: 240.0 mg/kg/injection, schedule: Q01DX005 (ip), vehicle: saline with Tween-80

Measured: T/C

C#CC(=O)OCC#CCOC(=O)C#C
inactive: dose: 0.75 mg/kg/injection, schedule: Q01DX009 (ip), vehicle: saline with Tween-80 104 % of control | dose: 1.5 mg/kg/injection, schedule: Q01DX009 (ip), vehicle: saline with Tween-80 104 % of control | dose: 3.0 mg/kg/injection, schedule: Q01DX009 (ip), vehicle: saline with Tween-80 112 % of control | dose: 6.0 mg/kg/injection, schedule: Q01DX009 (ip), vehicle: saline with Tween-80 96 % of control

O=C1c2ccccc2C(=O)N1CC[P+](C1CCCCC1)(C1CCCCC1)C1CCCCC1
inactive: dose: 0.78 mg/kg/injection, schedule: Q01DX009 (ip), vehicle: saline with Tween-80 110 % of control | dose: 1.56 mg/kg/injection, schedule: Q01DX009 (ip), vehicle: saline with Tween-80 112 % of control | dose: 3.13 mg/kg/injection, schedule: Q01DX009 (ip), vehicle: water 97 % of control | dose: 6.25 mg/kg/injection, schedule: Q01DX009 (ip), vehicle: saline with Tween-80 116 % of control | dose: 6.25 mg/kg/injection, schedule: Q01DX009 (ip), vehicle: water 118 % of control | dose: 12.5 mg/kg/injection, schedule: Q01DX009 (ip), vehicle: water 118 % of control | dose: 25.0 mg/kg/injection, schedule: Q01DX009 (ip), vehicle: water 118 % of control | dose: 50.0 mg/kg/injection, schedule: Q01DX009 (ip), vehicle: water 86 % of control

Cc1ccccc1/C(=C/c1ccc([N+](=O)[O-])cc1)C(=O)O
inactive: [1] 108 % of control | [2] 108 % of control | [3] 112 % of control

Nc1ccccc1S(=O)(=O)Nc1c(N)nc(SCC(=O)O)[nH]c1=O
inactive: dose: 15.0 mg/kg/injection, schedule: Q01DX005 (ip), vehicle: saline with Tween-80 98 % of control and 101 % of control | dose: 30.0 mg/kg/injection, schedule: Q01DX005 (ip), vehicle: saline with Tween-80 100 % of control and 95 % of control | [4] 100 % of control and 95 % of control | [2] 87 % of control and 96 % of control | [5] 99 % of control and 98 % of control | [3] 98 % of control and 93 % of control

BrCCc1ccc2ccccc2c1Br
inactive: dose: 50.0 mg/kg/injection, schedule: Q01DX005 (ip), vehicle: distilled water + Tween-80 + alcohol 111 % of control | dose: 100.0 mg/kg/injection, schedule: Q01DX005 (ip), vehicle: distilled water + Tween-80 + alcohol 109 % of control | dose: 200.0 mg/kg/injection, schedule: Q01DX005 (ip), vehicle: distilled water + Tween-80 + alcohol 105 % of control

CN(C)/C=N/c1c(CO)c(-c2ccccc2)nn1-c1ccccc1
inactive: dose: 50.0 mg/kg/injection, schedule: Q01DX009 (ip), vehicle: saline with Tween-80 104 % of control | dose: 100.0 mg/kg/injection, schedule: Q01DX009 (ip), vehicle: saline with Tween-80 100 % of control | dose: 200.0 mg/kg/injection, schedule: Q01DX009 (ip), vehicle: saline with Tween-80 104 % of control | dose: 400.0 mg/kg/injection, schedule: Q01DX009 (ip), vehicle: saline with Tween-80 105 % of control

O=c1nc(-c2ccccc2)sc(=O)[nH]1
inactive: [6] 102 % of control | [7] 111 % of control

COc1c(OC)c2oc(=O)c3cc4c(c5oc(=O)c(c1OC)c2c53)OCO4
inactive: dose: 1.75 mg/kg/injection, schedule: Q01DX005 (ip), vehicle: other 88 % of control | dose: 3.5 mg/kg/injection, schedule: Q01DX005 (ip), vehicle: other 86 % of control | dose: 7.0 mg/kg/injection, schedule: Q01DX005 (ip), vehicle: other 86 % of control

N#C/C(C(N)=O)=C1/C(=O)Nc2ccccc21
inactive: [8] 103 % of control | [9] 98 % of control | [10] 94 % of control

CCC(NCC(C)C)NCC(C)C
inactive: dose: 25.0 mg/kg/injection, schedule: Q04DX003 (ip), vehicle: saline 100 % of control | dose: 50.0 mg/kg/injection, schedule: Q04DX003 (ip), vehicle: saline 109 % of control | dose: 100.0 mg/kg/injection, schedule: Q04DX003 (ip), vehicle: saline 95 % of control

ClCCN(CCCl)c1ccc(/C=N/Nc2c3c(nc4ccccc24)CCCC3)cc1
inactive: dose: 0.39 mg/kg/injection, schedule: Q01DX009 (ip), vehicle: Klucel (hydroxypropylcellulose) (HPC) 95 % of control | dose: 0.78 mg/kg/injection, schedule: Q01DX009 (ip), vehicle: Klucel (hydroxypropylcellulose) (HPC) 108 % of control | dose: 1.56 mg/kg/injection, schedule: Q01DX009 (ip), vehicle: Klucel (hydroxypropylcellulose) (HPC) 95 % of control | [11] 90 % of control

CCOC(=O)COc1cc2c(cc1C(C)c1cc(OC)c(OC)c(OC)c1)OCO2 (configuration not stated)
inactive: dose: 50.0 mg/kg/injection, schedule: Q01DX005 (ip), vehicle: saline with Tween-80 100 % of control | dose: 100.0 mg/kg/injection, schedule: Q01DX005 (ip), vehicle: saline with Tween-80 105 % of control | dose: 200.0 mg/kg/injection, schedule: Q01DX005 (ip), vehicle: saline with Tween-80 99 % of control

NNC(=O)c1ccc(-c2ccccc2)cc1
inactive: dose: 6.25 mg/kg/injection, schedule: Q01DX009 (ip), vehicle: Klucel (hydroxypropylcellulose) (HPC) 102 % of control | [11] 107 % of control | [12] 102 % of control | [6] 110 % of control | [7] 116 % of control

Nc1cccc(SC(CC(=O)c2ccc(-c3ccccc3)cc2)c2ccco2)c1 (configuration not stated)
inactive: [6] 97 % of control | [7] 101 % of control

CCCCN1C(=O)N/C(=C/C(=O)OCC)C1=O
inactive: [12] 93 % of control | [6] 103 % of control | [7] 102 % of control

CC(=O)N1CCCN(C)/C1=N/[N+](=O)[O-]
inactive: dose: 60.0 mg/kg/injection, schedule: Q01DX005 (ip), vehicle: saline 103 % of control | dose: 120.0 mg/kg/injection, schedule: Q01DX005 (ip), vehicle: saline 100 % of control | dose: 240.0 mg/kg/injection, schedule: Q01DX005 (ip), vehicle: saline 108 % of control

CCOc1cc2cc(CCC#N)c(C)cc2cn1
inactive: dose: 12.5 mg/kg/injection, schedule: Q01DX009 (ip), vehicle: distilled water + Tween-80 93 % of control | dose: 25.0 mg/kg/injection, schedule: Q01DX009 (ip), vehicle: distilled water + Tween-80 87 % of control | dose: 50.0 mg/kg/injection, schedule: Q01DX009 (ip), vehicle: distilled water + Tween-80 87 % of control

CN(C)c1c2c(oc(=O)c1Cl)-c1ccccc1OCC2
inactive: [1] 101 % of control | [2] 103 % of control | [3] 107 % of control

CNc1cn(C2OC(CO)C(O)C2O)c(=O)[nH]c1=O (configuration not stated)
inactive: dose: 50.0 mg/kg/injection, schedule: Q01DX005 (ip), vehicle: saline 122 % of control | dose: 100.0 mg/kg/injection, schedule: Q01DX005 (ip), vehicle: saline 110 % of control | dose: 200.0 mg/kg/injection, schedule: Q01DX005 (ip), vehicle: saline 105 % of control

C=CCNC(=S)N/N=C(C)/C=C/c1ccc(OC)cc1
inactive: [8] 100 % of control | [9] 96 % of control | [10] 88 % of control

COC(=O)/C(=C/c1ccc(/C=C(/C(=O)O)c2ccc(OC)cc2)o1)c1ccc(OC)cc1
inactive: dose: 100.0 mg/kg/injection, schedule: Q04DX002 (ip), vehicle: saline with Tween-80 96 % of control | dose: 200.0 mg/kg/injection, schedule: Q04DX002 (ip), vehicle: saline with Tween-80 92 % of control | dose: 400.0 mg/kg/injection, schedule: Q04DX002 (ip), vehicle: saline with Tween-80 101 % of control

CC1CC(=O)c2c(nn(C)c2COCc2ccccc2)C1 (configuration not stated)
inactive: [4] 102 % of control | [5] 91 % of control | [13] 96 % of control

CC1=CCC(C(C)C2CCC3(C)C4=C(C=C5C=CC(=O)OC(C)(C)C5CC4)CCC23C)OC1=O (configuration not stated)
inactive: dose: 12.5 mg/kg/injection, schedule: Q01DX005 (ip), vehicle: other 108 % of control | dose: 25.0 mg/kg/injection, schedule: Q01DX005 (ip), vehicle: other 100 % of control | dose: 50.0 mg/kg/injection, schedule: Q01DX005 (ip), vehicle: other 93 % of control | dose: 100.0 mg/kg/injection, schedule: Q01DX005 (ip), vehicle: other 91 % of control

O=C(Nc1ccccc1)/C(N=Nc1ccc([N+](=O)[O-])cc1Cl)=N/Nc1ccccc1S(=O)(=O)O
inactive: [8] 102 % of control | [9] 101 % of control | [10] 91 % of control

COC(=O)CC1C=CC(OC)[C@@]2(C)C(=O)c3ccccc3C(=O)[C@@H]12 (some centres not stated)
inactive: [4] 93 % of control | [5] 106 % of control | [13] 101 % of control
